Test results taken from patent US11834698B2, “Process for determining enzyme activity in a cell by activity-based reporter gene technology (ABRGT)” (INDIAN INSTITUTE OF SCIENCE EDUCATION AND RESEARCH, priority 2018, dated 2023).
Peptide text beside a SMILES is read from it. * marks the point of attachment. Cbz = O=C(OCc1ccccc1)*; CH2F = FC*

Assays:
caspase-8 GFPspark = target: T1, caspase-8 GFPspark (Homo sapiens, UniProt Q14790); test: AbRGT FRET imaging / acceptor photobleaching, caspase-8 GFPspark in HEK-293 cells; type: cell-based
T1 construct: host or cells: HEK-293
Protocol: (§1) FIG. 15 depicts confocal images of MCF-7 cells in GFP, FRET and Rh channel Caspase-7 GFPspark transfected MCF-7 cells were treated with STS (1 μM) for 6 h and labelled (a) (i) with probe 1 (1 μM) probe. Cells were pre-treated with (a) (ii) Z-VAD-FMK (50 μM) or (a) (iii) Q-VD-OPh (50 μM) pan-caspase inhibitors 1 h before the probe labelling. Caspase-9 GFPspark transfected MCF-7 cells were treated with STS (1 μM) for 4 h and labelled (b) (i) with probe 1 (1 μM) probe. Cells were pre-treated with (b) (ii) Z-VAD-FMK (50 μM) 1 h before probe labelling. Caspase-8 GFPspark overexpressing HEK-293 cells were treated with TRAIL (1 μg/ml) for 5 h and labelled (c) (i) with the probe 1. Cells were pre-treated with (c) (ii) Z-VAD-FMK (50 μM) 1 h before probe labelling.
FIG. 18 depicts specific detection of caspase-8 GFPspark in HEK-293 cells. Casp-8 GFPspark (1 μg) transfected HEK-293 cells were treated with TRAIL ([…]) for 6 h and labelled with the probe 1 (1 μM) for 2 h. Cells were washed, fixed and the fluorescence signal was collected in GFP, FRET and Rh channels. The acceptor photobleaching experiment was performed to confirm the FRET signal as described previously. The bar graph representing a rise in GFP intensity in ROI after rhodamine photobleaching was 82 a.u. as compared to the unbleached background, i.e., 11 a.u. The FRET efficiency was calculated to be 31±1%.
(§2) Plasmids and transient transfection: GFPspark tagged plasmids; caspase-3 GFPspark tag (Cat: HG10050-ACG), caspase-7 GFPspark tag (HG10049-ACG), caspase-8 GFPspark (HG10078-ACG), caspase-9 GFPspark (HG11151-ACG) and cathepsin B GFPspark (HG10483-ACG) were procured from Sino Biological. For transfection, cells were seeded in a 6-well plate at a density of 0.4 million cells/well. At 60-70% confluency, cells were transiently transfected for 24 h at 37° C. with 1 μg of the GFPspark tagged plasmid DNA construct mixed with 5 μL of Lipofectamine 2000 (Invitrogen) according to the manufacturer's instructions. 24 h post-transfection, cells were visualized under the GFP filter for GFPspark expression under fluorescence microscope at 10× magnification.
(§3) Labelling of active caspases in apoptotic cells with FABP: After 24 h of transfection, cells were treated with STS (1 μM) drug or TRAIL (1 μg/ml) for apoptotic induction and incubated for 2, 4, 6 and 8 h at 37° C. in a humidified atmosphere of 5% CO2/95% air. Cells were gently scraped off from the surface at the end of apoptotic induction and centrifuged at 3000 rpm for 5 min. […] Slides were then imaged for GFP, FRET and rhodamine fluorescence signals under confocal microscopy. […]
(§4) Fluorescence imaging studies, FRET procedure: Images were collected on Zeiss LSM710 confocal microscope with 25 mW argon laser using Zen10 software. […]

caspase-9 GFPspark = target: T2, caspase-9 GFPspark (Homo sapiens, UniProt P55211); test: AbRGT FRET imaging / acceptor photobleaching, caspase-9 GFPspark in MCF-7 cells; type: cell-based
T2 construct: host or cells: MCF-7, HEK-293
T2 sequence (P55211 1-416): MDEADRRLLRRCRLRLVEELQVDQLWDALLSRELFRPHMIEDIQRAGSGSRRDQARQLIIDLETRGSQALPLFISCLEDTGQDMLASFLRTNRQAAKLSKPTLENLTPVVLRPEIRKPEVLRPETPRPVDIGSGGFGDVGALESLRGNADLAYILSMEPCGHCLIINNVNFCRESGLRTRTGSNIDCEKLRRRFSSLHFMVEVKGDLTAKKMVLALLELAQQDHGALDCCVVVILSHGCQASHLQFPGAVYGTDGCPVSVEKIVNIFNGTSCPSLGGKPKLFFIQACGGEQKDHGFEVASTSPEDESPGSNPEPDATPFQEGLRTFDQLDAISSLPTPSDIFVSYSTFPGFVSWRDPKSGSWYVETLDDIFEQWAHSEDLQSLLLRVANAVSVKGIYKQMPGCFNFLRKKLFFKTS
Protocol: as §1
FIG. 16 depicts specific detection of caspase-9 GFPspark in MCF-7 cells. Casp-9 GFPspark (1 μg) transfected MCF-7 cells were treated with STS (1 μM) for 4 h and labelled with the probe 1 (1 μM). Cells were fixed and the fluorescence signal was collected in GFP, FRET and Rh channels. The acceptor photobleaching experiment was carried out to confirm the FRET signal as described previously. Bar graph representing a rise in GFP intensity in ROI after rhodamine photobleaching was 63 a.u. as compared to the unbleached background, i.e., 8 a.u. FRET efficiency was calculated to be 30±1%.
as §2, §3, §4

[1] = HEK-293, TRAIL, Z-VAD-FMK pre-treatment
[2] = MCF-7, inhibitor 50 μM, STS 4 h
[3] = HEK-293, TRAIL 6 h, probe 1 μM 2 h
[4] = MCF-7, STS 1 μM 4 h, probe 1 μM

T1 sequence (Q14790 217-374 limits assumed): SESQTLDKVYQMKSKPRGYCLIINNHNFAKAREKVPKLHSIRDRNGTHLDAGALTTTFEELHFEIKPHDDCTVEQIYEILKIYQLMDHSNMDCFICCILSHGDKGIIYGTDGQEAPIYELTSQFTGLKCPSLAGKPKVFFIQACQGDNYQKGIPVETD
T1 sequence (Q14790 385-479 limits assumed): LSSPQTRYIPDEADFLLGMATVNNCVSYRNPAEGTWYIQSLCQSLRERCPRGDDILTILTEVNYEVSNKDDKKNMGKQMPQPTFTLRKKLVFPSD

effect of inhibitor on signal in FRET channel (caspase-8 GFPspark; [1])	effect of inhibitor on signal in Rh channel (caspase-8 GFPspark; [1])	effect of inhibitor on signal in FRET channel (caspase-9 GFPspark; [2])	effect of inhibitor on signal in Rh channel (caspase-9 GFPspark; [2])	Compound	calculated FRET efficiency (caspase-8 GFPspark; [3]) [%]	rise in GFP intensity in ROI after rhodamine photobleaching (caspase-8 GFPspark; [3]) [a.u.]	calculated FRET efficiency (caspase-9 GFPspark; [4]) [%]	rise in GFP intensity in ROI after rhodamine photobleaching (caspase-9 GFPspark; [4]) [a.u.]
abolished	abolished	completely abolished	completely abolished	COC(=O)C[C@H](NC(=O)[C@H](C)NC(=O)[C@@H](NC(=O)OCc1ccccc1)C(C)C)C(=O)CF [Z-VAD-FMK] (Cbz-Val-Ala-Asp(OMe)-CH2F)				
				Rhodamine-VAD-fluoromethyl ketone [probe 1]	31±1	82	30±1	63
